From publication PMC4763008, “Selective Inhibition of Bakuchicin Isolated from Psoralea corylifolia on CYP1A in Human Liver Microsomes” (Evidence-based Complementary and Alternative Medicine : eCAM, 2016)
pIC50: −log10 of the molar value. Where two headings read alike, the source gives them in different places.

Tests used:
Assay type in all cases: in vitro ADME
[1] = molecular target: T1, CYP2B6 (Homo sapiens, UniProt P20813); assay: CYP inhibition, cocktail of probe substrates in pooled human liver microsomes: bupropion hydroxylation; conditions: pooled HLMs, substrate 50 μM
T1 construct: tissue Corning Gentest BD UltraPool HLM 150; host or cells: pooled human liver microsomes
T1 sequence (P20813 1-491): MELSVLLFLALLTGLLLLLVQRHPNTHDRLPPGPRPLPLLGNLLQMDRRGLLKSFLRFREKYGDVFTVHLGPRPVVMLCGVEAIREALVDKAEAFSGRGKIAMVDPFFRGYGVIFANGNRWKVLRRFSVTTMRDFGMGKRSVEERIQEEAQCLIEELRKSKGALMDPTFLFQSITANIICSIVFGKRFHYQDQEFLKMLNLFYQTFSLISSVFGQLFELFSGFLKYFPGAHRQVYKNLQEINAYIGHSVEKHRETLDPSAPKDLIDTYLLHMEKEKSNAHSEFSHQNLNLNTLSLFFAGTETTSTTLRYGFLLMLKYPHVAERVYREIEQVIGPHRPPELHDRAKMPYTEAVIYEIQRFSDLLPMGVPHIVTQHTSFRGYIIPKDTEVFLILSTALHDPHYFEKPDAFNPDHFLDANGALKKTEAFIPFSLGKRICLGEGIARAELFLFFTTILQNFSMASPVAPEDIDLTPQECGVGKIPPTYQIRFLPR
Experimental: (§1) All incubations were performed in duplicate, and data are presented as means. Briefly, each reaction was performed with 0.5 mg/mL pooled human liver microsomes in a final incubation volume of 0.1 mL. The incubation medium consisted of 0.1 M potassium phosphate buffer (pH 7.4) containing cocktail of probe substrates and a NADPH-generating system (NGS) of 0.1 M glucose 6-phosphate, 10 mg/mL β-NADPH, and 1.0 U/mL glucose-6-phosphate dehydrogenase. To investigate the IC50 of bakuchicin during CYP1A inhibition, bakuchicin (at final concentrations of 0–25 μM) was incubated without preincubation. In addition, the mixture with bakuchicin was preincubated for 15 min without the probe substrate cocktail in the presence or absence of 1 mM β-NADPH. After the reaction was initiated by adding the NGS for 60 min, incubated samples were terminated by adding 100 μL acetonitrile containing 0.1% formic acid and 2.5 μL of internal standard solution (5 μM reserpine) in methanol. After mixing and centrifuging at 13,000 ×g for 12 min, a 5 μL aliquot was injected onto a C18 column for LC-MS/MS analysis.
(§2) All measurements were performed using LC-MS/MS in multiple reaction monitoring mode. LC-MS/MS was performed using an Accela™ LC system coupled to a TSQ Vantage triple quadrupole mass spectrometer (Thermo Fisher Scientific Inc., USA) equipped with a HESI-II Spray source. Electrospray ionization was performed in positive mode at a spray voltage of 3,500 V (except for the detection of 6-hydroxy chlorzoxazone). Nitrogen was used as a sheath and auxiliary gas at optimum values of 45 and 20 (arbitrary units), respectively. Vaporizer and capillary temperatures were 150 and 300°C, respectively. For LC analysis an Inertsil® ODS-2 (3 μm, 2.1 × 150 mm) column (GL Sciences Inc., Torrance, CA) was used. The mobile phase consisted of acetonitrile (mobile phase A) and water (mobile phase B), both of which contained 0.1% formic acid, at a flow rate of 0.22 mL/min at 30°C.
(§3) All incubations were performed in duplicate, and data are presented as means. […]

[2] = molecular target: T2, CYP2C8 (Homo sapiens, UniProt P10632); assay: CYP inhibition, cocktail of probe substrates in pooled human liver microsomes: paclitaxel hydroxylation; conditions: pooled HLMs, substrate 10 μM
T2 construct: each reaction was performed with 0.5 mg/mL pooled human liver microsomes; tissue Corning Gentest BD UltraPool HLM 150; host or cells: pooled human liver microsomes
T2 sequence (P10632 1-490): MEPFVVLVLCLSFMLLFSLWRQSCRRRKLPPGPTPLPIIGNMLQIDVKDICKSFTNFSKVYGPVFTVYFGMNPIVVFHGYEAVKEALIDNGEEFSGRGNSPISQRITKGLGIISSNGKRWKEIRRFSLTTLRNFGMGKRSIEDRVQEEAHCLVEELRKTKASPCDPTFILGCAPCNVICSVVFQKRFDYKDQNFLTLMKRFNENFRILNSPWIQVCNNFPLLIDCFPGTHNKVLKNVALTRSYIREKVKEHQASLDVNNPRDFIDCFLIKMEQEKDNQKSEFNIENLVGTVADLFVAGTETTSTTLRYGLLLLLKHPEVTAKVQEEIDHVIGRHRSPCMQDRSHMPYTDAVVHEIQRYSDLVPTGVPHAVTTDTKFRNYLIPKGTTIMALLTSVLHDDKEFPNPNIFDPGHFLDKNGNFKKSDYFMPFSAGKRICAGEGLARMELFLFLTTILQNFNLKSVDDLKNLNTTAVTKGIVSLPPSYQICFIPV

[3] = molecular target: T3, CYP2C9 (Homo sapiens, UniProt P11712); assay: CYP inhibition, cocktail of probe substrates in pooled human liver microsomes: diclofenac 4'-hydroxylation; conditions: pooled HLMs, substrate 10 μM
T3 construct: each reaction was performed with 0.5 mg/mL pooled human liver microsomes; tissue Corning Gentest BD UltraPool HLM 150; host or cells: pooled human liver microsomes
T3 sequence (P11712 whole entry): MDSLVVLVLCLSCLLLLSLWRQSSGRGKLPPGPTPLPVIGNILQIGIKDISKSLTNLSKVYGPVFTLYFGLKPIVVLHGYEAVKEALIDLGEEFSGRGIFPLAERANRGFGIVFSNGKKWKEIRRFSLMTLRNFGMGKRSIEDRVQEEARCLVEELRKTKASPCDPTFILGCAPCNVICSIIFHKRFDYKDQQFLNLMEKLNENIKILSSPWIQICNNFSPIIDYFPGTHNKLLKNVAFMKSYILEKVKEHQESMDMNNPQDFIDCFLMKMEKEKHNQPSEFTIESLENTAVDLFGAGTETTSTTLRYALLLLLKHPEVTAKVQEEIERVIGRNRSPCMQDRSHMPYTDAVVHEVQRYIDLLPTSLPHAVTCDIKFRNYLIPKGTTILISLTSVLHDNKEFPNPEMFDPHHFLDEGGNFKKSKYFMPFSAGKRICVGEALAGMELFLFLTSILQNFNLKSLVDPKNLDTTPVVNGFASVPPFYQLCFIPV

[4] = molecular target: T4, CYP2C19 (Homo sapiens, UniProt P33261); assay: CYP inhibition, cocktail of probe substrates in pooled human liver microsomes: omeprazole 5-hydroxylation; conditions: pooled HLMs, substrate 20 μM
T4 construct: tissue Corning Gentest BD UltraPool HLM 150; host or cells: pooled human liver microsomes
T4 sequence (P33261 whole entry): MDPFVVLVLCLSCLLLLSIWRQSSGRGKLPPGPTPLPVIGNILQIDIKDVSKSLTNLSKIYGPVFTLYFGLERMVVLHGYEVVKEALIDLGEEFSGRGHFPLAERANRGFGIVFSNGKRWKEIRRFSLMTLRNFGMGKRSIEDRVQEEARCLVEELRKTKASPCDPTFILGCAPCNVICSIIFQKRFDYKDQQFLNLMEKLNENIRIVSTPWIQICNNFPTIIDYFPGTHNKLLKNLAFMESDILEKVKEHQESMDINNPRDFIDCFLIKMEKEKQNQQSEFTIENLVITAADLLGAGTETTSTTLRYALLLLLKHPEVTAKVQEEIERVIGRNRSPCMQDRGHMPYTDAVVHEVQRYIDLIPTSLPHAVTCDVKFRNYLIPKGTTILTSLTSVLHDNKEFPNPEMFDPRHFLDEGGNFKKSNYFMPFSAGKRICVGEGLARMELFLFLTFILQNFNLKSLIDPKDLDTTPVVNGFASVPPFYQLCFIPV
Experimental: as §1, §2, §3

[5] = 15 min preincubation with NADPH, read-out: IC50 With preincubation with NADPH
[6] = 15 min preincubation without NADPH, read-out: IC50 With preincubation Without NADPH
[7] = without preincubation, read-out: IC50 Without preincubation

pIC50 [1, 5]: 4.94
pIC50 [1, 6]: 4.79
pIC50 [1, 7]: 4.85
pIC50 [2, 5]: < 4.00
pIC50 [2, 6]: < 4.00
pIC50 [2, 7]: < 4.00
pIC50 [3, 5]: < 4.00
pIC50 [3, 6]: < 4.00
pIC50 [3, 7]: < 4.00
pIC50 [4, 5]: < 4.00
pIC50 [4, 6]: < 4.00
pIC50 [4, 7]: < 4.00
Structure (SMILES): O=c1ccc2c(ccc3ccoc32)o1 [Bakuchicin]
